Experiments:
zinnia = assay: Determination of herbicidal activity, post-emergence stem and leaf spray, zinnia; assay type: in vivo; conditions: for control effects on zinnia: 150 g a.i./hm^2, after emergence, visual 0-100%; for Herbicidal activity for Zinnia, control effect %: Table 3 parallel comparison
Procedure: (§1) Seeds of broadleaf weeds (zinnia and piemarker) or grassy weeds (green bristlegrass and barnyard grass) were respectively sown in a paper cup having a diameter of 7 cm and containing nutrient soil; after sowing, the seeds were covered with 1 cm of soil; the soil was pressed and watered, and then the seeds were cultivated in a greenhouse according to a conventional method; and stems and leaves were sprayed after 2-3 leaf stage of the weeds.
(§2) After the original medicinal acetone was dissolved, the test requires to use 1‰ of Tween 80 to stand in running water to prepare the solution to be tested with a required concentration. According to the design dose of the test, spray treatment was carried out on a track-type crop sprayer (designed and produced by British Engineer Research Ltd.) (spray pressure is 1.95 kg/cm^2, spray volume is 500 L/hm^2 and track speed is 1.48 km/h). The test was repeated for three times. The test material was treated and then placed in an operation hall. The medicinal liquid was naturally dried in the shade, and then was placed in a greenhouse and managed according to the conventional method. The response of the weeds to the drug was observed and recorded. After treatment, the control effects of the test drug on the weeds were visually inspected regularly, expressed by 0-100%. “0” represents no control effect and “100%” represents complete killing.

piemarker = assay: Determination of herbicidal activity, post-emergence stem and leaf spray, piemarker; assay type: in vivo; conditions: for Herbicidal activity for Piemarker, control effect %: Table 4 parallel comparison
Procedure: as §1, §2

green bristlegrass = assay: Determination of herbicidal activity, post-emergence stem and leaf spray, green bristlegrass; assay type: in vivo; conditions: for Herbicidal activity for Green Bristlegrass, control effect %: Table 5 parallel comparison
Procedure: as §1, §2

barnyard grass = assay: Determination of herbicidal activity, post-emergence stem and leaf spray, barnyard grass; assay type: in vivo; conditions: for Herbicidal activity for Barnyard Grass, control effect %: Table 6 parallel comparison
Procedure: as §1, §2

Amaranthus retroflexus = conditions: postemergence application, doses of 7.81 and 3.91 g/ha; cited from earlier work
Chenopodium album L. = conditions: postemergence application, doses of 7.81 and 3.91 g/ha; cited from earlier work
[1] = test system: Commelina benghalensis Linn.; conditions: postemergence application, doses of 7.81 and 3.91 g/ha; cited from earlier work
Setaria faberi = conditions: postemergence application, doses of 7.81 and 3.91 g/ha; cited from earlier work
[2] = 2.34 g a.i./hm^2, after emergence
[3] = 9.375 g a.i./hm^2, after emergence
[4] = 37.5 g a.i./hm^2, after emergence
[5] = 150 g a.i./hm^2, after emergence, visual 0-100%
[6] = Table 2, 9.375 g a.i./hm^2, after emergence
[7] = Table 2, 37.5 g a.i./hm^2, after emergence

SMILES	control effects on zinnia (zinnia)	Herbicidal activity for Zinnia, control effect % (zinnia; [2])	Herbicidal activity for Zinnia, control effect % (zinnia; [3])	Herbicidal activity for Piemarker, control effect % (piemarker; [2])	Herbicidal activity for Piemarker, control effect % (piemarker; [3])	Herbicidal activity for Green Bristlegrass, control effect % (green bristlegrass; [3])	Herbicidal activity for Green Bristlegrass, control effect % (green bristlegrass; [4])	Herbicidal activity for Barnyard Grass, control effect % (barnyard grass; [3])	Herbicidal activity for Barnyard Grass, control effect % (barnyard grass; [4])	control effects on piemarker (piemarker; [5])	Zinnia, control effect % (zinnia; [6])	Zinnia, control effect % (zinnia; [7])	Piemarker, control effect % (piemarker; [6])	Piemarker, control effect % (piemarker; [7])	Green Bristlegrass, control effect % (green bristlegrass; [6])	Green Bristlegrass, control effect % (green bristlegrass; [7])	Barnyard Grass, control effect % (barnyard grass; [6])	Barnyard Grass, control effect % (barnyard grass; [7])	other results
Cn1c(=S)n(C)c(=O)n(-c2cc(C(=O)OCC(=O)OCC3CC3)c(Cl)cc2F)c1=O [Compound 241, 2-chloro-4-fluoro-5-(3,5-dimethyl-2,6-dioxo-4-thio-1,3,5-triazine-1-yl)benzoic acid (cyclopropylmethoxycarbonyl) methyl ester]	100%	100%	100%	98%	100%	80%	100%	95%	98%										pest or weed control at 150 g/ha (piemarker; post-emergence, 150 g a.i./hm^2, after emergence, visual 0-100%, read-out: control effects on piemarker): 100%
Cn1c(=S)n(C)c(=O)n(-c2cc(C(=O)OCC(=O)OCC3CO3)c(Cl)cc2F)c1=O (stereo not drawn) [Compound 245]	100%	95%	100%			70%	90%	95%	98%	100%									
Cn1c(=S)n(C)c(=O)n(-c2cc(C(=O)OCC(=O)OCC3CCCO3)c(Cl)cc2F)c1=O (stereo not drawn) [Compound 246]	100%	95%	95%			80%	90%	95%	98%	100%									
CCOC(=O)[C@@H](C)OC(=O)c1cc(-n2c(=O)n(C)c(=S)n(C)c2=O)c(F)cc1Cl [Compound 249]	100%									100%	50%	70%	65%	100%	35%	80%	30%	55%	
CCOC(=O)[C@H](C)OC(=O)c1cc(-n2c(=O)n(C)c(=S)n(C)c2=O)c(F)cc1Cl [Compound 250]	100%	80%	95%	85%	100%	70%	90%	90%	100%	100%	70%	98%	98%	100%	100%	100%	50%	90%	
C=CCOC(=O)c1cc(-n2c(=O)n(C)c(=S)n(C)c2=O)c(F)cc1Cl [KC1, reference compound]			50%		55%	10%	25%	0%	25%		50%	60%	55%	100%	10%	25%	0%	25%	control of Amaranthus retroflexus (Amaranthus retroflexus): effectively control; control of Chenopodium album L. (Chenopodium album L.): effectively control; control of Commelina benghalensis Linn. [1]: effectively control; control of Setaria faberi (Setaria faberi): effectively control

Reference: patent US12577216B2, “Triazine benzoate compound and application thereof” (SHENYANG SINOCHEM AGROCHEMICALS R&D CO., LTD., priority 2020, dated 2026)
